Data as given in ChEMBL document CHEMBL1201862, “PubChem BioAssay data set” (2004).
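Five concentrations, 48 hours, 96-well plates. GI50: concentration for 50% inhibition of growth.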 The source made the active and inactive calls. Cut-off read from the data, not from the text of the source: active = GI50 up to about 1.1 µM and inactive = higher.

Tests used:
Assay in all cases: NCI tumour cell line growth inhibition, 48 h
[1] = test system: NCI/ADR-RES
[2] = test system: UACC-257
[3] = test system: HOP-62
[4] = test system: PC-3
[5] = test system: SK-MEL-28
[6] = test system: HCT-116
[7] = test system: HL-60
[8] = test system: UO-31
[9] = test system: SNB-75
[10] = test system: CAKI-1
[11] = test system: SNB-19
[12] = test system: NCI-H522
[13] = test system: NCI-H460
[14] = test system: IGROV-1
[15] = test system: A498
[16] = test system: HCC 2998
[17] = test system: COLO 205
[18] = test system: MDA-MB-435
[19] = test system: Malme-3M
[20] = test system: M14
[21] = test system: OVCAR-8
[22] = test system: ACHN
[23] = test system: OVCAR-4
[24] = test system: TK-10
[25] = test system: MDA-N
[26] = test system: KM12
[27] = test system: LOX IMVI
[28] = test system: SK-OV-3
[29] = test system: UACC-62
[30] = test system: BT-549
[31] = test system: K562
[32] = test system: NCI-H23
[33] = test system: OVCAR-3
[34] = test system: T47D
[35] = test system: A549
[36] = test system: EKVX
[37] = test system: 786-0
[38] = test system: OVCAR-5
[39] = test system: DU-145
[40] = test system: Hs-578T
[41] = test system: SK-MEL-5
[42] = test system: SF-539
[43] = test system: SN12C
[44] = test system: MDA-MB-231
[45] = test system: HCT-15
[46] = test system: MOLT-4
[47] = test system: NCI-H226
[48] = test system: RXF 393
[49] = test system: MCF7
[50] = test system: SK-MEL-2
[51] = test system: SF-295
[52] = test system: RPMI-8226
[53] = test system: CCRF-CEM
[54] = test system: HOP-92
[55] = test system: U-251
[56] = test system: SF-268
[57] = test system: HT-29
[58] = test system: SR
[59] = test system: SW-620

`CCN(CC)C(=O)CCN1CC1` was tested, and the GI50 [1] was > 10 µM (inactive), the GI50 [2] was > 10 µM (inactive) and the GI50 [3] was > 10 µM (inactive). The GI50 [4] was > 10 µM (inactive), the GI50 [5] was > 10 µM (inactive) and the GI50 [6] was > 10 µM (inactive). The GI50 [7] was > 10 µM (inactive), the GI50 [8] was > 10 µM (inactive) and the GI50 [9] was > 10 µM (inactive). The GI50 [10] was > 10 µM (inactive), the GI50 [11] was > 10 µM (inactive) and the GI50 [12] was > 10 µM (inactive). For the same molecule, the GI50 [13] was > 10 µM (inactive), the GI50 [14] was > 10 µM (inactive) and the GI50 [15] was > 10 µM (inactive). The GI50 [16] was > 10 µM (inactive), the GI50 [17] was > 10 µM (inactive) and the GI50 [18] was > 10 µM (inactive). For the same molecule, the GI50 [19] was > 10 µM (inactive), the GI50 [20] was > 10 µM (inactive) and the GI50 [21] was > 10 µM (inactive). For the same molecule, the GI50 [22] was > 10 µM (inactive), the GI50 [23] was > 10 µM (inactive) and the GI50 [24] was > 10 µM (inactive). For the same molecule, the GI50 [25] was > 10 µM (inactive), the GI50 [26] was > 10 µM (inactive) and the GI50 [27] was > 10 µM (inactive). The GI50 [28] was > 10 µM (inactive), the GI50 [29] was > 10 µM (inactive) and the GI50 [30] was > 10 µM (inactive). The GI50 [31] was > 10 µM (inactive), the GI50 [32] was > 10 µM (inactive) and the GI50 [33] was > 10 µM (inactive). The GI50 [34] was > 10 µM (inactive), the GI50 [35] was > 10 µM (inactive) and the GI50 [36] was > 10 µM (inactive). The GI50 [37] was > 10 µM (inactive), the GI50 [38] was > 10 µM (inactive) and the GI50 [39] was > 10 µM (inactive). For the same molecule, the GI50 [40] was > 10 µM (inactive), the GI50 [41] was > 10 µM (inactive) and the GI50 [42] was > 10 µM (inactive). The GI50 [43] was > 10 µM (inactive), the GI50 [44] was > 10 µM (inactive) and the GI50 [45] was over 10 µM. The GI50 [46] was > 10 µM (inactive), the GI50 [47] was > 10 µM (inactive) and the GI50 [48] was > 10 µM (inactive). For the same molecule, the GI50 [49] was > 10 µM (inactive), the GI50 [50] was > 10 µM (inactive) and the GI50 [51] was > 10 µM (inactive). For the same molecule, the GI50 [52] was > 10 µM (inactive), the GI50 [53] was > 10 µM (inactive) and the GI50 [54] was > 10 µM (inactive). For the same molecule, the GI50 [55] was > 10 µM (inactive), the GI50 [56] was > 10 µM (inactive) and the GI50 [57] was > 10 µM (inactive). The GI50 [58] was > 10 µM (inactive).
`Oc1cc(Cl)cc2cccnc12` was tested, and the GI50 [1] was 0.354 µM (active), the GI50 [2] was 1.38 µM (inactive) and the GI50 [3] was > 35 µM (inactive). The GI50 [4] was 1.26 µM (inactive), the GI50 [5] was 19.3 µM (inactive) and the GI50 [6] was 1.43 µM (inactive). For the same molecule, the GI50 [7] was 0.229 µM (active), the GI50 [8] was 0.847 µM (active) and the GI50 [9] was 17.2 µM (inactive). For the same molecule, the GI50 [10] was 5 µM (inactive), the GI50 [11] was 5.94 µM (inactive) and the GI50 [12] was 0.348 µM (active). For the same molecule, the GI50 [13] was 1.44 µM (inactive), the GI50 [14] was 0.986 µM (active) and the GI50 [15] was 11.5 µM (inactive). For the same molecule, the GI50 [16] was 24.5 µM (inactive), the GI50 [17] was 6.65 µM (inactive) and the GI50 [18] was 3.52 µM (inactive). For the same molecule, the GI50 [19] was 3.02 µM (inactive), the GI50 [20] was 10.5 µM (inactive) and the GI50 [21] was 0.528 µM (active). The GI50 [22] was 1.38 µM (inactive), the GI50 [23] was 0.411 µM (active) and the GI50 [24] was 57.5 µM (inactive). For the same molecule, the GI50 [25] was 17.9 µM (inactive), the GI50 [26] was 4.78 µM (inactive) and the GI50 [27] was 0.625 µM (active). The GI50 [28] was 43.7 µM (inactive), the GI50 [29] was 1.01 µM (active) and the GI50 [30] was 3.89 µM (inactive). For the same molecule, the GI50 [31] was 0.396 µM (active), the GI50 [32] was 1.29 µM (inactive) and the GI50 [33] was 0.306 µM (active). For the same molecule, the GI50 [34] was 2.25 µM (inactive), the GI50 [35] was 0.998 µM (active) and the GI50 [36] was 0.804 µM (active). The GI50 [37] was 8.71 µM (inactive), the GI50 [38] was 4.85 µM (inactive) and the GI50 [39] was 9.71 µM (inactive). The GI50 [40] was 4.05 µM (inactive), the GI50 [41] was 0.902 µM (active) and the GI50 [59] was 1.65 µM (inactive). For the same molecule, the GI50 [43] was 1.7 µM (inactive), the GI50 [44] was 2.19 µM (inactive) and the GI50 [45] was 0.552 µM. For the same molecule, the GI50 [46] was 0.465 µM (active), the GI50 [47] was 6.79 µM (inactive) and the GI50 [48] was 3.02 µM (inactive). For the same molecule, the GI50 [49] was 1.04 µM (active), the GI50 [50] was 5.92 µM (inactive) and the GI50 [51] was 0.288 µM (active). The GI50 [52] was 0.601 µM (active), the GI50 [53] was 0.288 µM (active) and the GI50 [54] was 3.25 µM (inactive). For the same molecule, the GI50 [55] was 0.971 µM (active), the GI50 [56] was 0.296 µM (active) and the GI50 [57] was 9.31 µM (inactive). The GI50 [58] was 0.449 µM (active).
`COc1cc([N+](=O)[O-])ccc1NC1=CC(=O)CCC1` was tested, and the GI50 [1] was > 100 µM (inactive), the GI50 [2] was > 100 µM (inactive) and the GI50 [3] was > 100 µM (inactive). For the same molecule, the GI50 [4] was > 100 µM (inactive), the GI50 [5] was 59.4 µM (inactive) and the GI50 [6] was > 100 µM (inactive). The GI50 [7] was > 100 µM (inactive), the GI50 [8] was > 100 µM (inactive) and the GI50 [9] was 27.6 µM (inactive). The GI50 [10] was 49.5 µM (inactive), the GI50 [11] was > 100 µM (inactive) and the GI50 [13] was > 100 µM (inactive). For the same molecule, the GI50 [14] was > 100 µM (inactive), the GI50 [15] was > 100 µM (inactive) and the GI50 [16] was > 100 µM (inactive). The GI50 [17] was > 100 µM (inactive), the GI50 [18] was > 100 µM (inactive) and the GI50 [19] was > 100 µM (inactive). The GI50 [20] was > 100 µM (inactive), the GI50 [21] was > 100 µM (inactive) and the GI50 [22] was > 100 µM (inactive). For the same molecule, the GI50 [23] was > 100 µM (inactive), the GI50 [24] was > 100 µM (inactive) and the GI50 [25] was > 100 µM (inactive). The GI50 [26] was > 100 µM (inactive), the GI50 [27] was > 100 µM (inactive) and the GI50 [28] was > 100 µM (inactive). The GI50 [29] was > 100 µM (inactive), the GI50 [30] was > 100 µM (inactive) and the GI50 [31] was > 100 µM (inactive). For the same molecule, the GI50 [32] was > 100 µM (inactive), the GI50 [33] was > 100 µM (inactive) and the GI50 [34] was > 100 µM (inactive). For the same molecule, the GI50 [35] was > 100 µM (inactive), the GI50 [36] was > 100 µM (inactive) and the GI50 [37] was > 100 µM (inactive). The GI50 [38] was > 100 µM (inactive), the GI50 [39] was > 100 µM (inactive) and the GI50 [40] was > 100 µM (inactive). The GI50 [41] was > 100 µM (inactive), the GI50 [59] was > 100 µM (inactive) and the GI50 [42] was > 100 µM (inactive). For the same molecule, the GI50 [43] was > 100 µM (inactive), the GI50 [44] was > 100 µM (inactive) and the GI50 [45] was over 100 µM. The GI50 [46] was > 100 µM (inactive), the GI50 [47] was > 100 µM (inactive) and the GI50 [48] was > 100 µM (inactive). For the same molecule, the GI50 [49] was > 100 µM (inactive), the GI50 [50] was > 100 µM (inactive) and the GI50 [51] was > 100 µM (inactive). The GI50 [52] was > 100 µM (inactive), the GI50 [53] was > 100 µM (inactive) and the GI50 [54] was > 100 µM (inactive). For the same molecule, the GI50 [55] was > 100 µM (inactive), the GI50 [56] was > 100 µM (inactive) and the GI50 [57] was > 100 µM (inactive). For the same molecule, the GI50 [58] was > 100 µM (inactive).
